In article PMC10443802, “Targeting a xenobiotic transporter to ameliorate vincristine-induced sensory neuropathy” (JCI Insight, 2023):
Several values for one entry are separate records, joined by “and”; a condition that tells them apart may be missing. Identical values can stand only once.

How the values were obtained:
hOATP1B3 = molecular target: T1, hOATP1B3 (Homo sapiens, UniProt Q9NPD5); assay: Nilotinib uptake in HEK293 cells overexpressing hOATP1B3; assay type: in vitro ADME; conditions: HEK293 cells overexpressing hOATP1B3 vs vector control
T1 sequence (Q9NPD5 1-702): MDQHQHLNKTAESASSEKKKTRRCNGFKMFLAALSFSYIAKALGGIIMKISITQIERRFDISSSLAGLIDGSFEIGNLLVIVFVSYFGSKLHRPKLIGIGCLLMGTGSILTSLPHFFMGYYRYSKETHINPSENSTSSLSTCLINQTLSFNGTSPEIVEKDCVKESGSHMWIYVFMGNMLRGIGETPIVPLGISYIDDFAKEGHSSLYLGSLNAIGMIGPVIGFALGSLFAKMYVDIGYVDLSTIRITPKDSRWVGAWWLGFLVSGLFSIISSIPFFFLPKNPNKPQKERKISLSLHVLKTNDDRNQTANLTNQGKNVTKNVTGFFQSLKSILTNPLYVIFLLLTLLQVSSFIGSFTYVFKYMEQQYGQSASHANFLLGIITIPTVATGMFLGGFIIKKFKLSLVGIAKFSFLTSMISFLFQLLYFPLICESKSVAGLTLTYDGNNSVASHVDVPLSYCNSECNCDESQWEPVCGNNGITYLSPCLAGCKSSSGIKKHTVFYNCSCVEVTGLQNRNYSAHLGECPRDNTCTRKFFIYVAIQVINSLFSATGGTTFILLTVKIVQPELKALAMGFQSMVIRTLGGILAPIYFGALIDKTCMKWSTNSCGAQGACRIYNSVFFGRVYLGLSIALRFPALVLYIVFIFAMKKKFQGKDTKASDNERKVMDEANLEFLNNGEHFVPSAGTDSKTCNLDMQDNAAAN

hOATP3A1 = hOATP3A1 (Homo sapiens, UniProt Q9UIG8); assay: Vincristine uptake screen, HeLa cells overexpressing hOATP3A1; assay type: in vitro ADME
Chain of hOATP3A1 (Q9UIG8 whole entry): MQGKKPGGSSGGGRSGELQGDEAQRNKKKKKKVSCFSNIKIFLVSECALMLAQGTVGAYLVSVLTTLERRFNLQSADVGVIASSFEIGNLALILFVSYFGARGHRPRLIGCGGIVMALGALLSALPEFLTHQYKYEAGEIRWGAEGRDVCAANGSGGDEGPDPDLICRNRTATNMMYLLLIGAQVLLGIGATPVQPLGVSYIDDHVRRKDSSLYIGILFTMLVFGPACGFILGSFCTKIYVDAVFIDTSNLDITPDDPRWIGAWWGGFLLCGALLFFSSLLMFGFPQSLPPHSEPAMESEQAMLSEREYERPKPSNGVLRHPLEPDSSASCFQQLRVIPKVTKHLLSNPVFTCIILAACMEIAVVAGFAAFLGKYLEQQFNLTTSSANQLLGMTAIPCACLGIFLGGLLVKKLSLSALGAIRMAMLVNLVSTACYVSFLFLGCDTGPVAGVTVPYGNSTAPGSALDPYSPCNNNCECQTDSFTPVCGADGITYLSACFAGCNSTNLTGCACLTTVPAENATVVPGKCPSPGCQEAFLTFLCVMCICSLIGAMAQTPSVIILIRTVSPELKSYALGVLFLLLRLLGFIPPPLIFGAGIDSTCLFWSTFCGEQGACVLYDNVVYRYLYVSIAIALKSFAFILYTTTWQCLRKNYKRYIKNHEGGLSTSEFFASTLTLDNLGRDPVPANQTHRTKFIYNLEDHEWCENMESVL
Experimental: (§1) Relative uptake is expressed as percentage change compared with empty vector controls (n = 4–14 per group). […] Human OATP1B1 and OATP1B3 transporter–overexpressed cells were used as positive controls; empty vector controls were used as the negative control. […] Mechanical allodynia (C), thermal hyperalgesia (D), and sciatic nerve maximal action potential amplitudes (E) are expressed as percentage change relative to baseline values (n = 6–8 per group). Statistical analysis was performed using a 2-way ANOVA with Bonferroni’s post hoc test. **P < 0.01, ***P < 0.001, ****P < 0.0001, compared with baseline values. […] Data are shown as mean ± SEM. […]
(§2) transfected with transporters of interest, including hOAT1, hOAT3, hOAT4, hOATP1A2, hOATP3A1, hOATP4A1, hOATP5A1, hOATP1C1, hOATP1B1, hOATP1B3, hOATP2B1, hOCT1, hOCT2, hOCTN1, hOCTN2, hASBT, hNTCP, hNPT1, hMATE1, hOSTα/β, hPEPT1, hPEPT2, rOatp1a1, rOatp1a4, rOatp1a5, rOatp1b2, rNtcp, rAsbt, rOat1, and rOct1. Cells were transfected with expression plasmid or vector control lacking any insert using Lipofectin reagent (Invitrogen). Sixteen hours thereafter, cells were washed with transport media (OPTIMEM, Invitrogen) and treated with radiolabeled drug. […] The cellular radioactivity was quantified by liquid scintillation counting as described above. […]

hOATP1A2 = hOATP1A2 (Homo sapiens, UniProt P46721); assay: Vincristine uptake screen, HeLa cells overexpressing hOATP1A2; assay type: in vitro ADME
Chain of hOATP1A2 (P46721 whole entry): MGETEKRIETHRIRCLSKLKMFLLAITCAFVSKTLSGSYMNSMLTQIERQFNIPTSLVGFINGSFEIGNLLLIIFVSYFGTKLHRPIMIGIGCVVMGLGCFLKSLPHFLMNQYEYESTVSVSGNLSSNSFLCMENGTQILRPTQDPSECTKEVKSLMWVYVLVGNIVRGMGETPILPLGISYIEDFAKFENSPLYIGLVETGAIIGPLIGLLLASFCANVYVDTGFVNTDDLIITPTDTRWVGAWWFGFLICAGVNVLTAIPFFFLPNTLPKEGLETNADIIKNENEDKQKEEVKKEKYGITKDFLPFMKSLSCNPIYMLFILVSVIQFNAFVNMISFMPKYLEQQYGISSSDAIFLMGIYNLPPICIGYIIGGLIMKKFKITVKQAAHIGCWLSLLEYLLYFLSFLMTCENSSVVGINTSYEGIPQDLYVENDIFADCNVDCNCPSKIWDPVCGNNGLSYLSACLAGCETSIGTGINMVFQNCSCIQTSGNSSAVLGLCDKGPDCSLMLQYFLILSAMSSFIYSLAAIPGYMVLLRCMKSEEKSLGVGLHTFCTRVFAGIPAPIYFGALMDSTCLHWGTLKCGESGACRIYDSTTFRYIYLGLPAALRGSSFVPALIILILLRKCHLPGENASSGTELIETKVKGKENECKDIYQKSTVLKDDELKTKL
Experimental: as §1
as §2, with “(Invitrogen).” for “(Invitrogen). Sixteen hours thereafter, cells were washed with transport media (OPTIMEM, Invitrogen) and treated with radiolabeled drug.”
(§3) Samples were analyzed using real-time quantitative PCR and Taqman Probes (Applied Biosystems). The relative gene expression was determined using the ΔΔCt method, and normalized to the mouse or human housekeeping gene, GAPDH. […]

hNPT1 = hNPT1 (Homo sapiens, UniProt Q14916); assay: Vincristine uptake screen, HeLa cells overexpressing hNPT1; assay type: in vitro ADME
Chain of hNPT1 (Q14916 whole entry): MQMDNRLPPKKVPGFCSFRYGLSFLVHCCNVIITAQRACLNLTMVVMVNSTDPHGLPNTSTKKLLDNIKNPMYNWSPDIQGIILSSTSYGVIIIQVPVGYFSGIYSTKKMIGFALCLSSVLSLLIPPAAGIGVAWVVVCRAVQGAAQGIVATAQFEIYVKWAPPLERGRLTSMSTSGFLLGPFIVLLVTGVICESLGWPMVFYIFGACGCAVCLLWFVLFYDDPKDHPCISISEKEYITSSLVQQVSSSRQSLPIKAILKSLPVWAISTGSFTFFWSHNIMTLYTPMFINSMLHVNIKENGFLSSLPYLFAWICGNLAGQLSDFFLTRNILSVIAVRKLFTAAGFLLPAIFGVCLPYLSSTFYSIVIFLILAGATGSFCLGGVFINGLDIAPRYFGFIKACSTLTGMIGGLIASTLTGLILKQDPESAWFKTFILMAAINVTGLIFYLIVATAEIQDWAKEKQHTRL
Experimental: as §1, §2

hOATP5A1 = hOATP5A1 (Homo sapiens, UniProt Q9H2Y9); assay: Vincristine uptake screen, HeLa cells overexpressing hOATP5A1; assay type: in vitro ADME
Chain of hOATP5A1 (Q9H2Y9 whole entry): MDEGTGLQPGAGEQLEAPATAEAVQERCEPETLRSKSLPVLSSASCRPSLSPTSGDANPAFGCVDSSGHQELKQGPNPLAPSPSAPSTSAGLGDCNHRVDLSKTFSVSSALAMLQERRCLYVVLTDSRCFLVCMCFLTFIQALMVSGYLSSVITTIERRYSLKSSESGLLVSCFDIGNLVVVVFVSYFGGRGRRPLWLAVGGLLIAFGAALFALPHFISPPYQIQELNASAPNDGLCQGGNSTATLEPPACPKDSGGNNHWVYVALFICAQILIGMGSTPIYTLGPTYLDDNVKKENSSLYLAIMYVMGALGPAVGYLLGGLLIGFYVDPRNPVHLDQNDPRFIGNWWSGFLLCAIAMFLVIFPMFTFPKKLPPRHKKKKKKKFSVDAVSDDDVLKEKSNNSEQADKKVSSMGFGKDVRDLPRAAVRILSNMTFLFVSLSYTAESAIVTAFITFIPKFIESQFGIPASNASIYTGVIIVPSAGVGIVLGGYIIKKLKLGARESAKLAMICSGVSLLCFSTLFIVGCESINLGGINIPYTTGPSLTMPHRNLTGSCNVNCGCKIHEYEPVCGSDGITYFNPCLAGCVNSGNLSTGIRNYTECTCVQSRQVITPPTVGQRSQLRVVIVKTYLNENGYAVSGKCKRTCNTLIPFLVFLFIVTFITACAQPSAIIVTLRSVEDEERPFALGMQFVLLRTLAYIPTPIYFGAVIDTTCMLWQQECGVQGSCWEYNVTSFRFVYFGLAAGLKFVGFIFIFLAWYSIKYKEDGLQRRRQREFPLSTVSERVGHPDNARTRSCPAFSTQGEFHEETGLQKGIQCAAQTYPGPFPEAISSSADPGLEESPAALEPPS
Experimental: as §1, §2

THP1 = assay: Cytotoxicity of vincristine with or without nilotinib, MTT assay, THP1; assay type: cell-based, human; conditions: individual replicates
RS411 = assay: Cytotoxicity of vincristine with or without nilotinib, MTT assay, RS411; assay type: cell-based, human; conditions: RS411 cells, vincristine alone, individual replicates
mice = assay: Gross motor performance, automated elevated ladder test; assay type: in vivo, mouse
hASBT = hASBT (Homo sapiens, UniProt Q12908); assay: Vincristine uptake screen, HeLa cells overexpressing hASBT; assay type: in vitro ADME
Chain of hASBT (Q12908 whole entry): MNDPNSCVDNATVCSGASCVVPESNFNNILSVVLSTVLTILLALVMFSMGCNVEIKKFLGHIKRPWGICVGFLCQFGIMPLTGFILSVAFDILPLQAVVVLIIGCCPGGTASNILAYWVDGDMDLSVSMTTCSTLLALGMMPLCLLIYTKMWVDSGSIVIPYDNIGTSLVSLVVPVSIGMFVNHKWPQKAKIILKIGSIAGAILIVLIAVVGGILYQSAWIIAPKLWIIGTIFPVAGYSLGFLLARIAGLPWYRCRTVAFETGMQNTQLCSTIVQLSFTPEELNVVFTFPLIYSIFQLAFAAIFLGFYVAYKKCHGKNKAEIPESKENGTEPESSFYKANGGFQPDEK
Experimental: as §1
as §2, with “(Invitrogen).” for “(Invitrogen). Sixteen hours thereafter, cells were washed with transport media (OPTIMEM, Invitrogen) and treated with radiolabeled drug.”
as §3

SMILES	Nilotinib uptake (% of control) (hOATP1B3)	Vincristine uptake (% of vector control) (hOATP3A1)	Vincristine uptake (% of vector control) (hOATP1A2)	Vincristine uptake (% of vector control) (hNPT1)	Vincristine uptake (% of vector control) (hOATP5A1)	IC50 (THP1; Homo sapiens, THP-1, THP1 cells, vincristine + 1μM Nilotinib) [nM]	IC50 (THP1; Homo sapiens, THP-1, THP1 cells, vincristine alone) [nM]	IC50 (THP1; THP1 cells, vincristine alone)	IC50 (RS411)	Gross motor performance (automated ladder and open field tests) (mice; WT mice or OATP1B2-/- mice, single i.p. dose 1 mg/kg)	Number of missed steps (mice; Wild-type mice, Day 2)	Vincristine uptake (% of vector control) (hASBT)
Cc1cn(-c2cc(NC(=O)c3ccc(C)c(Nc4nccc(-c5cccnc5)n4)c3)cc(C(F)(F)F)c2)cn1 [Nilotinib, nilotinib]	123.521 % of control and 118.661 % of control and 108.968 % of control	–	–	–	–	–	–	–	–	–	–	–
CC[C@]1(O)C[C@H]2CN(CCc3c([nH]c4ccccc34)[C@@](C(=O)OC)(c3cc4c(cc3OC)N(C=O)[C@H]3[C@@](O)(C(=O)OC)[C@H](OC(C)=O)[C@]5(CC)C=CCN6CC[C@]43[C@@H]65)C2)C1 [Vincristine, vincristine]	–	104.00 % of vector control and 96.00 % of vector control and 76.00 % of vector control and 101.00 % of vector control and 79.00 % of vector control and 120.00 % of vector control and 100.00 % of vector control and 111.00 % of vector control	186.00 % of vector control and 176.00 % of vector control and 142.00 % of vector control and 167.00 % of vector control and 183.00 % of vector control and 171.00 % of vector control and 148.00 % of vector control and 164.00 % of vector control	120.00 % of vector control and 91.00 % of vector control and 99.00 % of vector control and 72.00 % of vector control and 100.00 % of vector control and 104.00 % of vector control and 113.00 % of vector control	109.00 % of vector control and 94.00 % of vector control and 90.00 % of vector control and 76.00 % of vector control and 77.00 % of vector control and 86.00 % of vector control and 80.00 % of vector control and 85.00 % of vector control	11	15.4	14.4 nM (2×) and 15.4 nM and 15.1 nM and 14.6 nM and 10.5 nM and 10.2 nM and 16.9 nM	4.81 nM and 6.23 nM and 4 nM and 8.42 nM and 6.45 nM and 7.46 nM and 5.33 nM and 4.58 nM and 7.35 nM	did not affect gross motor performance	7.667 and 9.667 and 8.333 and 5.667 and 8 and 10.6667 and 9.333	91.00 % of vector control and 82.00 % of vector control and 85.00 % of vector control and 81.00 % of vector control and 114.00 % of vector control and 83.00 % of vector control and 69.00 % of vector control and 101.00 % of vector control
